# Results as given in PubChem BioAssay AID1963829 (Molecular Pharmacology Branch, DTP, NCI, 2024).
# pIC50: −log10 of the molar value.
# Tested on: 935938-334-R-J1-PDC complex spheroid viability
# Assay: Anticancer human tumor 935938-334-R-J1-PDC patient-derived small intestine adenocarcinoma cell line growth inhibition [POLQ]
# Settings: for pIC50: curve of first compound; for viability, T/C: stronger effect = lower value
# Summary of the method: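 Patient-derived tumour cells were co-cultured with HUVEC and mesenchymal stem cells as multicellular spheroids at 37 °C. They were treated with POLQ inhibitors (novobiocin, ART-558, RP6685) alone or combined with other agents. Top concentrations were at or near clinical Cmax (otherwise 10 microM; SN-38 at 1 microM), decreasing in half-log steps.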
# [1] = second compound 0.0316 µM, first compound 0.0316 µM
# [2] = second compound 0.0316 µM, first compound 0.1 µM
# [3] = second compound 0.0316 µM, first compound 0.316 µM
# [4] = second compound 0.0316 µM, first compound 1 µM
# [5] = second compound 0.0316 µM, first compound 3.16 µM
# [6] = second compound 0.0316 µM, first compound 10 µM
# [7] = second compound 0.1 µM, first compound 0.0316 µM
# [8] = second compound 0.1 µM, first compound 0.1 µM
# [9] = second compound 0.1 µM, first compound 0.316 µM
# [10] = second compound 0.1 µM, first compound 1 µM
# [11] = second compound 0.1 µM, first compound 3.16 µM
# [12] = second compound 0.1 µM, first compound 10 µM
# [13] = second compound 0.316 µM, first compound 0.0316 µM
# [14] = second compound 0.316 µM, first compound 0.1 µM
# [15] = second compound 0.316 µM, first compound 0.316 µM
# [16] = second compound 0.316 µM, first compound 1 µM
# [17] = second compound 0.316 µM, first compound 3.16 µM
# [18] = second compound 0.316 µM, first compound 10 µM
# [19] = second compound 1 µM, first compound 0.0316 µM
# [20] = second compound 1 µM, first compound 0.1 µM
# [21] = second compound 1 µM, first compound 0.316 µM
# [22] = second compound 1 µM, first compound 1 µM
# [23] = second compound 1 µM, first compound 3.16 µM
# [24] = second compound 1 µM, first compound 10 µM
# [25] = second compound 3.16 µM, first compound 0.0316 µM
# [26] = second compound 3.16 µM, first compound 0.1 µM
# [27] = second compound 3.16 µM, first compound 0.316 µM
# [28] = second compound 3.16 µM, first compound 1 µM
# [29] = second compound 3.16 µM, first compound 3.16 µM
# [30] = second compound 3.16 µM, first compound 10 µM
# [31] = second compound 10 µM, first compound 0.0316 µM
# [32] = second compound 10 µM, first compound 0.1 µM
# [33] = second compound 10 µM, first compound 0.316 µM
# [34] = second compound 10 µM, first compound 1 µM
# [35] = second compound 10 µM, first compound 3.16 µM
# [36] = second compound 10 µM, first compound 10 µM
# 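Further: spheroids exposed to drugs for seven days before viability read.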
# 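Wherever viability, T/C is given: 100% = DMSO vehicle control wells.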
structure (smiles),measurement,setting,value
COc1cccc2c1C(=O)c1c(O)c3c(c(O)c1C2=O)CC(O)(C(=O)CO)CC3OC1CC(N)C(O)C(C)O1 (stereo unspecified) + Cc1cccc(N(C)C(=O)C2C(O)CCN2c2nc(C)cc(C(F)(F)F)c2C#N)c1,pIC50,second compound 0.0316 µM,7.26
same,pIC50,second compound 0.1 µM,7.06
same,pIC50,second compound 0.316 µM,7.28
same,pIC50,second compound 1 µM,7.12
same,pIC50,second compound 3.16 µM,7.15
same,pIC50,second compound 10 µM,> 7.50
same,"viability, T/C",[1],60.2%
same,"viability, T/C",[2],35.3%
same,"viability, T/C",[3],34.6%
same,"viability, T/C",[4],21.2%
same,"viability, T/C",[5],7.49%
same,"viability, T/C",[6],4.38%
same,"viability, T/C",[7],63.8%
same,"viability, T/C",[8],48.5%
same,"viability, T/C",[9],31.6%
same,"viability, T/C",[10],23.7%
same,"viability, T/C",[11],7.55%
same,"viability, T/C",[12],3.7%
same,"viability, T/C",[13],56.5%
same,"viability, T/C",[14],41.8%
same,"viability, T/C",[15],26.8%
same,"viability, T/C",[16],19.7%
same,"viability, T/C",[17],8.13%
same,"viability, T/C",[18],5.68%
same,"viability, T/C",[19],75.8%
same,"viability, T/C",[20],34.2%
same,"viability, T/C",[21],31.4%
same,"viability, T/C",[22],19.3%
same,"viability, T/C",[23],5.12%
same,"viability, T/C",[24],5.59%
same,"viability, T/C",[25],63.8%
same,"viability, T/C",[26],39.4%
same,"viability, T/C",[27],35.3%
same,"viability, T/C",[28],19.8%
same,"viability, T/C",[29],2.97%
same,"viability, T/C",[30],4.99%
same,"viability, T/C",[31],49.4%
same,"viability, T/C",[32],33.8%
same,"viability, T/C",[33],37.7%
same,"viability, T/C",[34],16.8%
same,"viability, T/C",[35],5.04%
same,"viability, T/C",[36],5.34%
CC1COCCN1c1cc(C2(S(C)(=N)=O)CC2)nc(-c2ccnc3[nH]ccc23)n1 (stereo unspecified) + COC1C(OC(N)=O)C(O)C(Oc2ccc3c(O)c(NC(=O)c4ccc(O)c(CC=C(C)C)c4)c(=O)oc3c2C)OC1(C)C,pIC50,second compound 0.0316 µM,5.56
same,pIC50,second compound 0.1 µM,5.67
same,pIC50,second compound 0.316 µM,5.65
same,pIC50,second compound 1 µM,5.41
same,pIC50,second compound 3.16 µM,5.61
same,pIC50,second compound 10 µM,5.67
same,"viability, T/C",[1],111%
same,"viability, T/C",[2],85.8%
same,"viability, T/C",[3],85.7%
same,"viability, T/C",[4],59.5%
same,"viability, T/C",[5],58.6%
same,"viability, T/C",[6],23.1%
same,"viability, T/C",[7],122%
same,"viability, T/C",[8],102%
same,"viability, T/C",[9],82.3%
same,"viability, T/C",[10],67.8%
same,"viability, T/C",[11],43.1%
same,"viability, T/C",[12],17.7%
same,"viability, T/C",[13],104%
same,"viability, T/C",[14],69%
same,"viability, T/C",[15],81.9%
same,"viability, T/C",[16],73%
same,"viability, T/C",[17],38.4%
same,"viability, T/C",[18],17.3%
same,"viability, T/C",[19],96.1%
same,"viability, T/C",[20],80.3%
same,"viability, T/C",[21],84.8%
same,"viability, T/C",[22],64.8%
same,"viability, T/C",[23],65.8%
same,"viability, T/C",[24],14.9%
same,"viability, T/C",[25],86.2%
same,"viability, T/C",[26],87.8%
same,"viability, T/C",[27],90.2%
same,"viability, T/C",[28],68.4%
same,"viability, T/C",[29],45.1%
same,"viability, T/C",[30],16.3%
same,"viability, T/C",[31],105%
same,"viability, T/C",[32],82.5%
same,"viability, T/C",[33],95.2%
same,"viability, T/C",[34],58.1%
same,"viability, T/C",[35],44.3%
same,"viability, T/C",[36],17.3%
COc1ccc([C@@H](O)c2cc(-c3ncnc4cc(N5CCOCC5)ccc34)c(F)cc2Cl)nn1 + Cc1cccc(N(C)C(=O)C2C(O)CCN2c2nc(C)cc(C(F)(F)F)c2C#N)c1,pIC50,second compound 0.0316 µM,5.22
same,pIC50,second compound 0.1 µM,5.37
same,pIC50,second compound 0.316 µM,5.49
same,pIC50,second compound 1 µM,5.19
same,pIC50,second compound 3.16 µM,5.43
same,pIC50,second compound 10 µM,5.59
same,"viability, T/C",[1],79.3%
same,"viability, T/C",[2],117%
same,"viability, T/C",[3],76.8%
same,"viability, T/C",[4],79.1%
same,"viability, T/C",[5],63.8%
same,"viability, T/C",[6],39.9%
same,"viability, T/C",[7],75.3%
same,"viability, T/C",[8],98.1%
same,"viability, T/C",[9],69.6%
same,"viability, T/C",[10],60.3%
same,"viability, T/C",[11],61.4%
same,"viability, T/C",[12],34.5%
same,"viability, T/C",[13],116%
same,"viability, T/C",[14],98.9%
same,"viability, T/C",[15],97.6%
same,"viability, T/C",[16],75.8%
same,"viability, T/C",[17],48.2%
same,"viability, T/C",[18],30.3%
same,"viability, T/C",[19],90.6%
same,"viability, T/C",[20],80.2%
same,"viability, T/C",[21],83.4%
same,"viability, T/C",[22],97.6%
same,"viability, T/C",[23],72.7%
same,"viability, T/C",[24],35.8%
same,"viability, T/C",[25],101%
same,"viability, T/C",[26],85%
same,"viability, T/C",[27],81.8%
same,"viability, T/C",[28],67.2%
same,"viability, T/C",[29],55%
same,"viability, T/C",[30],33.1%
same,"viability, T/C",[31],103%
same,"viability, T/C",[32],80.8%
same,"viability, T/C",[33],85.6%
same,"viability, T/C",[34],59.9%
same,"viability, T/C",[35],48.9%
same,"viability, T/C",[36],28.4%
